Series [1] deals with ST-elevation myocardial infarction (STEMI) patients undergoing percutaneous coronary intervention. The series is described as follows: FRACTAL phase IIa clinical study: left ventricular thrombus and intramyocardial haemorrhage by CMR and/or echocardiogram on day 3. It counts as in vivo, human. The conditions noted are these: treatment group vs placebo, day 3 of the treatment. The text has this: (§1) The FRACTAL (FRACTalkine inhibition in Acute myocardial infarction) study was designed as a phase Iia, randomised, two-arm parallel-group, placebo-controlled, double-blind, multi-centre trial. The trial was primarily intended to assess the safety tolerability of intravenous and oral administration of (2R)-2-[(2-amino-5-{[(1S)-1-phenylethyl]thio}[1,3]thiazolo[4,5-d]pyrimidin-7-yl)amino]-4-methylpentan-1-ol (KAND567) (hydrochloride salt) (′investigational medicinal product (IMP)′; structure below)
in ST-elevation myocardial infarction (STEMI) patients undergoing percutaneous coronary intervention. For this, a cohort of 71 STEMI patients were admitted into two large tertiary centres in the United Kingdom. Secondary endpoints included investigating the anti-inflammatory and cardioprotective effects of the treatment. […]
(§2) The primary outcome of the study was safety, but a number of key secondary outcomes being assessed in parallel. Blood samples at nine different time points were used to assess any changes in the immune compartment as well as in inflammatory markers, and the cardioprotective effects of KAND567, as measured by gadolinium-contrast Cardiac Magnetic Resonance (CMR) (Cardiac MRI), were assessed as an additional secondary end point. […]

Series [2] shares this test system. The series is described as follows: FRACTAL clinical study: infarct size by late gadolinium-enhanced (LGE) MRI at day 90. It counts as in vivo, human. The conditions noted are these: for Infarct size, GAD5-SD(%): LGE MRI at day 90, average, N in brackets. As for the experimental part:
Every patient received a baseline CMR scan on day 3 post myocardial infarction, followed by a subsequent scan after 3 months. Image analysis was performed by a
Additionally, the size of the myocardial infarction was assessed using late gadolinium-enhanced (LGE) magnetic resonance imaging (MRI) at day 90 to compare infarct size in patients administered the placebo or the IMP, using a thresholding of 5 standard deviations above the mean signal intensity from normal myocardium.
The average infarct size for patients with and without intramyocardial haemorrhage in the placebo and treatment groups is shown in the table below.

For series [3] the test system is unchanged. Kind of series: FRACTAL clinical study: safety, tolerability and bleeding. The series is classed as in vivo, human.
Text: as §1
Following angiography and final confirmation of eligibility, patients were randomised to receive the intravenous (IV) bolus of either investigational medicinal product (IMP) or placebo. To avoid delivery of the IMP after reperfusion of the occluded vessel, percutaneous coronary intervention (PCI) was only commenced following the intravenous bolus of IMP/placebo. Patients then completed the remainder of their IMP infusion over 6 h. […]
as §2

Series [4] in a line: FRACTAL clinical study: steady state concentration during IV infusion. The series is classed as in vivo, human. The conditions noted are these: IV infusion over 6 hours, total dose 134 mg; in the blood. As for the experimental part: The IMP and placebo (IMP 7.5 mg/mL solution (comprising 7.5 mg/mL IMP, Kleptose HP, sodium chloride and disodium phosphate in water for injection) added to 250 mL sodium chloride 0.9%, placebo solution as IMP solution but without active ingredient) were administered intravenously over a 6 hour period, at the rate summarised in the table below.
• Infusion of the initial bolus dose (approximately 10 mg of the active ingredient) was commenced at least 2 minutes before initiation of PCI. • Reperfusion of the occluded vessel was then initiated by advancing a coronary wire past the occluded or partially occluded site, followed by either balloon angioplasty, thrombectomy or stenting, according to routine clinical care. • IV infusion was then continued over 6 hours with an estimated steady state concentration of 1.5 µM (the rate of infusion was adjusted 3 hours after the start of the bolus dose, to achieve a steady concentration in the blood). The same IV solution was used throughout to give a total dose of 134 mg of the active ingredient over the 6-hour infusion time; placebo solution as IMP solution but without active ingredient). • If required, a bridging peroral dose of 0 to 4 capsules (50 mg capsules of IMP (white, size 1, hard capsules) or matching placebo) was administered depending on timing of presenting at the hospital. […]

Series [5] deals with rat myocardial infarction model. The conditions noted are these: rat model without antiplatelet or anticoagulant co-treatment; cited from earlier work.

Take `CC(C)C[C@H](CO)Nc1nc(S[C@@H](C)c2ccccc2)nc2nc(N)sc12` [KAND567, (2R)-2-[(2-amino-5-{[(1S)-1-phenylethyl]thio}[1,3]thiazolo[4,5-d]pyrimidin-7-yl)amino]-4-methylpentan-1-ol]: in series [1], the “intramyocardial haemorrhage (in words)” value is listed as “significant reduction” and the “left ventricular thrombus (in words)” value is “significant reduction”. In series [2] (day 90, beyond the benefit of avoiding intramyocardial hemorrhage), the “infarct size compared to the placebo group (in words)” value is recorded as “further reduction”. The “Infarct size, GAD5-SD(%)” value in series [2] (patients with intramyocardial hemorrhage, T-test vs placebo p = 0.81) is 30.8 (11) %. The “Infarct size, GAD5-SD(%)” value in series [2] (patients without intramyocardial hemorrhage, T-test vs placebo p = 0.15) was 17.8 (16) %. In addition, in series [3] (intravenous and oral administration in STEMI patients), the safety and tolerability result was “safe and well-tolerated”. Moreover, the incidence of bleeding result in series [3] (treatment group vs placebo) was “no increased incidence of bleeding”. Further, in series [4], the “estimated steady state concentration” value is listed as 1.5 UM. Moreover, in series [5], the infarct size entry is “reduce”, the inflammation result is “reduce” and the intramyocardial haemorrhage result is recorded as “reduce”.

Source of the values: patent US20250195549A1, “NEW USE” (Kancera AB, priority 2023, published 2025).
